{"source": "patent US12344615B2", "about": "“Substituted pyridines as ion channel modulators” (PRAXIS PRECISION MEDICINES, INC., priority 2019, dated 2025)", "data": [{"target": "T1, INaL v1.6 (late sodium current, HEK-293 cells expressing recombinant sodium channels) (Homo sapiens, UniProt Q9UQD0)", "T1 construct": "expressed in transfected cells; host or cells: HEK-293", "T1 sequence (Q9UQD0 whole entry)": "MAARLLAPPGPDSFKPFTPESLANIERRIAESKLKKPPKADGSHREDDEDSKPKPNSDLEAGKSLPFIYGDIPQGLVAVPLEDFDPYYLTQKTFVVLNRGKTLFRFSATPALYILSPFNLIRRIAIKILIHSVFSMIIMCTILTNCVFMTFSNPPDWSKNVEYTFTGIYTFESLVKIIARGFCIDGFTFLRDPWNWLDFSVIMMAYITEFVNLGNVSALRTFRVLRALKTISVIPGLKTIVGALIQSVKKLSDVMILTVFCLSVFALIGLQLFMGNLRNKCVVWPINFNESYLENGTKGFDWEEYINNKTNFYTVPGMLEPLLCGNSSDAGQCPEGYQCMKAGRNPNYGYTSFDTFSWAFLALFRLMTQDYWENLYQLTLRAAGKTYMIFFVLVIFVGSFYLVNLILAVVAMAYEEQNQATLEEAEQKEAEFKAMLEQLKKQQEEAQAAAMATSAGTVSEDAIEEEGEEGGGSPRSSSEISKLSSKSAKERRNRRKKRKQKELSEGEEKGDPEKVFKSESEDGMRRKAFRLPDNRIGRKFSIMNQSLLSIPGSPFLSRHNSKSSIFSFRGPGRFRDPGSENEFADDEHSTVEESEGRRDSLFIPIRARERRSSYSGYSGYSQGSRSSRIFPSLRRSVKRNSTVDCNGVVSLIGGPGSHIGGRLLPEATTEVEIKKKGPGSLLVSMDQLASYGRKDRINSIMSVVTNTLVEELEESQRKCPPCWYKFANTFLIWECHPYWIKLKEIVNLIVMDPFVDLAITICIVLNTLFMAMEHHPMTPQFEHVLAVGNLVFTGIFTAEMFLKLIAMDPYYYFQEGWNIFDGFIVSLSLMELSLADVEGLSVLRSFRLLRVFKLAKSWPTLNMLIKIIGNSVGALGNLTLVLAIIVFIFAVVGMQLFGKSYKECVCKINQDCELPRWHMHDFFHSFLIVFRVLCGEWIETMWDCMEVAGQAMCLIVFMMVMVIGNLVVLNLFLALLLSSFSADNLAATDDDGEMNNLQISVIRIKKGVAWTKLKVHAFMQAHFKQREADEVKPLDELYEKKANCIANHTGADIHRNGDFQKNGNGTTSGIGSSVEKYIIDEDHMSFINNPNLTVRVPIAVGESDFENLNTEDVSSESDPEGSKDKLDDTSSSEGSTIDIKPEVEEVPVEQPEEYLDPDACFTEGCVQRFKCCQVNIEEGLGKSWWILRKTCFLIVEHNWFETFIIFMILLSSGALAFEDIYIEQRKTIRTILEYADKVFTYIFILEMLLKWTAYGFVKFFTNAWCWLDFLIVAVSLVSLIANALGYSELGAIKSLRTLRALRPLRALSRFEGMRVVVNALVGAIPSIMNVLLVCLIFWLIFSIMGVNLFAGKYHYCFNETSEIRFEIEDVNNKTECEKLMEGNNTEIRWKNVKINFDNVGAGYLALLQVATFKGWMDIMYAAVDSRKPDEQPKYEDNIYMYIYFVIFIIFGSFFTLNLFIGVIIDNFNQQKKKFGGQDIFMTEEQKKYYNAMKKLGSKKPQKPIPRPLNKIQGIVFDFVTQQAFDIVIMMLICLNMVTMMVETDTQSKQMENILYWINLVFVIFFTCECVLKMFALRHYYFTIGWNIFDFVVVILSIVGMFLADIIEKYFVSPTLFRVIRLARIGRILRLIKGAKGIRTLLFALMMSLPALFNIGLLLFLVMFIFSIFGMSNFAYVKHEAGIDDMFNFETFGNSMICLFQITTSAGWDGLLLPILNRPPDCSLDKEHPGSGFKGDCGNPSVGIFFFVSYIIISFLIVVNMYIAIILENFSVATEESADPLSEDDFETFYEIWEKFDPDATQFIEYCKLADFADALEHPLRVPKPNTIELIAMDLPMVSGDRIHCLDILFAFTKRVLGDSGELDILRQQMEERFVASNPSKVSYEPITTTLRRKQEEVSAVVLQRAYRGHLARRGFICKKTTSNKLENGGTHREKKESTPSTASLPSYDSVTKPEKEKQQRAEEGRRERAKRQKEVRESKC", "assay": "Inhibition of ATX-II evoked Nav late current (INaL), PatchXpress electrophysiology", "type": "cell-based", "settings": "HEK293, compound at 1 μM, late current evoked by ATX-II 300 nM", "description": "(§1) Functional characterization of exemplary compounds to modulate voltage gated sodium currents was accomplished using the PatchXpress™ high throughput electrophysiology platforms (Molecular Devices, Sunnyvale, CA). HEK-293 cells expressing recombinant sodium channels were grown in DMEM/high-glucose Dulbecco's modified, 10% FBS, 2 mM sodium pyruvate, and G418. Nav channel expressing cells were grown to 50%-80% confluency and harvested by trypsinization. Trypsinized cells were washed and resuspended in extracellular buffer at a concentration of 1×10^6 cells/ml. The onboard liquid handling facility of the PatchXpress was used for dispensing cells and application of test compounds. Nav late currents were evoked by the application of ATX-II, 300 nM. Currents were evoked by depolarizing pulses to 0 mV for 200 ms from a non-inactivating holding potential (e.g., −120 mV to −150 mV) at a frequency of 0.1 Hz. Late current amplitude and stability were determined by analyzing the mean current amplitude over the 175-195 msec region of the 200 msec test pulse. Following steady state block with exemplary compounds (e.g., as described herein) at 1 μM, a Na^+ free solution containing an impermeant cation (e.g., Choline or NDMG) was added for determination of the 0 current level. Late current amplitudes for each test condition were determined from the mean of the 175-195 msec region of the 200 msec test pulse. Percent inhibition of steady state currents was calculated as (compound−baseline)/(control−baseline)*100, where control represents INaL recorded in the absence of compound.", "units": {"inhibition at 1 µM": "%"}, "values": [{"smiles": "CC(C)(Oc1ncc(-c2cn3c(C(F)F)nnc3cn2)cc1F)C(F)(F)F", "note": "[Compound 1, 3-(difluoromethyl)-6-[5-fluoro-6-(2,2,2-trifluoro-1,1-dimethyl-ethoxy)-3-pyridyl]-[1,2,4]triazolo[4,3-a]pyrazine]", "inhibition at 1 µM": "> 75"}, {"smiles": "Fc1cc(-c2cn3c(C(F)(F)F)nnc3cn2)cnc1OC1(C(F)(F)F)COC1", "note": "[Compound 2, 6-[5-fluoro-6-[3-(trifluoromethyl)oxetan-3-yl]oxy-3-pyridyl]-3-(trifluoromethyl)-[1,2,4]triazolo[4,3-a]pyrazine]", "inhibition at 1 µM": "< 50"}, {"smiles": "C[C@H](Oc1ncc(-c2cn3c(C4CC4(F)F)nnc3cn2)cc1F)C(F)(F)F", "note": "(single isomer, unassigned) [18 (Isomer 1)]", "inhibition at 1 µM": "< 50"}, {"smiles": "Fc1cc(-c2ccc3nnc(C(F)F)n3n2)cnc1OCC1CC1(F)F", "note": "(single isomer, unassigned) [21 (Isomer 1)]", "inhibition at 1 µM": "50 to 75"}, {"smiles": "C[C@H](Oc1ncc(-c2ccc3nnc(C(F)F)n3n2)cc1F)C(F)(F)F", "note": "[Compound 15, 3-(difluoromethyl)-6-[5-fluoro-6-[(1S)-2,2,2-trifluoro-1-methyl-ethoxy]-3-pyridyl]-[1,2,4]triazolo[4,3-b]pyridazine]", "inhibition at 1 µM": "> 75"}, {"smiles": "CC(C)(Oc1ncc(-c2ccc3nnc(C4CC4(F)F)n3n2)cc1F)C(F)(F)F", "note": "(single isomer, unassigned) [11 (Isomer 1)]", "inhibition at 1 µM": "> 75"}, {"smiles": "CC(C)(Oc1ncc(-c2cn3c(C4CC4(F)F)nnc3cn2)cc1F)C(F)(F)F", "note": "(stereo not drawn) [Compound 10, 3-(2,2-difluorocyclopropyl)-6-[5-fluoro-6-(2,2,2-trifluoro-1,1-dimethyl-ethoxy)-3-pyridyl]-[1,2,4]triazolo[4,3-a]pyrazine]", "inhibition at 1 µM": "50 to 75"}, {"smiles": "Fc1cc(-c2ccc3nnc(C(F)(F)F)n3n2)cnc1OC1(C(F)(F)F)CCC1", "note": "[Compound 6, 6-[5-fluoro-6-[1-(trifluoromethyl)cyclobutoxy]-3-pyridyl]-3-(trifluoromethyl)-[1,2,4]triazolo[4,3-b]pyridazine]", "inhibition at 1 µM": "> 75"}, {"smiles": "Fc1cc(-c2ccc3nnc(C(F)(F)F)n3n2)cnc1OCC1CC1(F)F", "note": "(stereo not drawn) [Compound 24, 6-[6-[(2,2-difluorocyclopropyl)methoxy]-5-fluoro-3-pyridyl]-3-(trifluoromethyl)-[1,2,4]triazolo[4,3-b]pyridazine]", "inhibition at 1 µM": "50 to 75"}, {"smiles": "Cc1c(-c2cnc(O[C@H](C)C(F)(F)F)c(F)c2)ncc2nnc(C(F)(F)F)n12", "note": "[Compound 39, 6-[5-fluoro-6-[(1R)-2,2,2-trifluoro-1-methyl-ethoxy]-3-pyridyl]-5-methyl-3-(trifluoromethyl)-[1,2,4]triazolo[4,3-a]pyrazine]", "inhibition at 1 µM": "50 to 75"}, {"smiles": "CC(C)(Oc1ncc(-c2cn3c(C4CC4(F)F)nnc3cn2)cc1F)C(F)(F)F", "note": "(single isomer, unassigned) [13 (Isomer 1)]", "inhibition at 1 µM": "< 50"}, {"smiles": "Fc1cc(-c2cn3c(C(F)(F)F)nnc3cn2)cnc1OC1CC(F)(F)C1(F)F", "note": "(stereo not drawn) [Compound 33, 6-[5-fluoro-6-(2,2,3,3-tetrafluorocyclobutoxy)-3-pyridyl]-3-(trifluoromethyl)-[1,2,4]triazolo[4,3-a]pyrazine]", "inhibition at 1 µM": "> 75"}, {"smiles": "Cc1cc2nnc(C(F)(F)F)n2nc1-c1ccc(O[C@H](C)C(F)(F)F)nc1", "note": "[Compound 49, (R)-7-methyl-3-(trifluoromethyl)-6-(6-((1,1,1-trifluoropropan-2-yl)oxy)pyridin-3-yl)-[1,2,4]triazolo[4,3-b]pyridazine]", "inhibition at 1 µM": "50 to 75"}, {"smiles": "C[C@H](Oc1ccc(-c2nn3c(C(F)(F)F)nnc3cc2Cl)cn1)C(F)(F)F", "note": "[Compound 46, (S)-7-chloro-3-(trifluoromethyl)-6-(6-((1,1,1-trifluoropropan-2-yl)oxy)pyridin-3-yl)-[1,2,4]triazolo[4,3-b]pyridazine]", "inhibition at 1 µM": "> 75"}, {"smiles": "C[C@@H](Oc1ncc(-c2cn3c(C4CC(F)(F)C4)nnc3cn2)cc1F)C(F)(F)F", "note": "[Compound 20, 3-(3,3-difluorocyclobutyl)-6-[5-fluoro-6-[(1R)-2,2,2-trifluoro-1-methyl-ethoxy]-3-pyridyl]-[1,2,4]triazolo[4,3-a]pyrazine]", "inhibition at 1 µM": "< 50"}, {"smiles": "Fc1cc(-c2cn3c(C(F)(F)F)nnc3cn2)cnc1OC1CC(F)(F)C1(F)F", "note": "(single isomer, unassigned) [32 (Isomer 1)]", "inhibition at 1 µM": "> 75"}, {"smiles": "Fc1cc(-c2cn3c(C(F)(F)F)nnc3cn2)cnc1OCC1CC1(F)F", "note": "(single isomer, unassigned) [28 (Isomer 1)]", "inhibition at 1 µM": "50 to 75"}, {"smiles": "CC(C)(Oc1ccc(-c2nn3c(C(F)(F)F)nnc3cc2Cl)cn1)C(F)(F)F", "note": "[Compound 50, 7-chloro-6-[6-(2,2,2-trifluoro-1,1-dimethyl-ethoxy)-3-pyridyl]-3-(trifluoromethyl)-[1,2,4]triazolo[4,3-b]pyridazine]", "inhibition at 1 µM": "> 75"}, {"smiles": "CC(C)(Oc1ncc(-c2cn3c(C4CC(F)(F)C4)nnc3cn2)cc1F)C(F)(F)F", "note": "[Compound 8, 3-(3,3-difluorocyclobutyl)-6-[5-fluoro-6-(2,2,2-trifluoro-1,1-dimethyl-ethoxy)-3-pyridyl]-[1,2,4]triazolo[4,3-a]pyrazine]", "inhibition at 1 µM": "50 to 75"}, {"smiles": "Fc1cc(-c2ccc3nnc(C(F)(F)F)n3n2)cnc1OC1(C(F)(F)F)COC1", "note": "[Compound 4, 6-[5-fluoro-6-[3-(trifluoromethyl)oxetan-3-yl]oxy-3-pyridyl]-3-(trifluoromethyl)-[1,2,4]triazolo[4,3-b]pyridazine]", "inhibition at 1 µM": "50 to 75"}, {"smiles": "Cc1c(-c2cnc(O[C@@H](C)C(F)(F)F)c(F)c2)ncc2nnc(C(F)(F)F)n12", "note": "[Compound 38, 6-[5-fluoro-6-[(1S)-2,2,2-trifluoro-1-methyl-ethoxy]-3-pyridyl]-5-methyl-3-(trifluoromethyl)-[1,2,4]triazolo[4,3-a]pyrazine]", "inhibition at 1 µM": "50 to 75"}, {"smiles": "Cc1cc2nnc(C(F)(F)F)n2nc1-c1ccc(OC(C)(C)C(F)(F)F)nc1", "note": "[Compound 51, 7-methyl-6-[6-(2,2,2-trifluoro-1,1-dimethyl-ethoxy)-3-pyridyl]-3-(trifluoromethyl)-[1,2,4]triazolo[4,3-b]pyridazine]", "inhibition at 1 µM": "50 to 75"}, {"smiles": "C[C@@H](Oc1ncc(-c2nn3c(C(F)(F)F)nnc3cc2Cl)cc1F)C(F)(F)F", "note": "[Compound 42, 7-chloro-6-[5-fluoro-6-[(1R)-2,2,2-trifluoro-1-methyl-ethoxy]-3-pyridyl]-3-(trifluoromethyl)-[1,2,4]triazolo[4,3-b]pyridazine]", "inhibition at 1 µM": "50 to 75"}, {"smiles": "CC(C)(Oc1ncc(-c2ccc3nnc(C4CC(F)(F)C4)n3n2)cc1F)C(F)(F)F", "note": "[Compound 14, 3-(3,3-difluorocyclobutyl)-6-[5-fluoro-6-(2,2,2-trifluoro-1,1-dimethyl-ethoxy)-3-pyridyl]-[1,2,4]triazolo[4,3-b]pyridazine]", "inhibition at 1 µM": "> 75"}, {"smiles": "Fc1cc(-c2cn3c(C(F)F)nnc3cn2)cnc1OC1(C(F)(F)F)CCC1", "note": "[Compound 9, 3-(difluoromethyl)-6-[5-fluoro-6-[1-(trifluoromethyl)cyclobutoxy]-3-pyridyl]-[1,2,4]triazolo[4,3-a]pyrazine]", "inhibition at 1 µM": "> 75"}, {"smiles": "Cc1cc2nnc(C(F)(F)F)n2nc1-c1ccc(O[C@@H](C)C(F)(F)F)nc1", "note": "[Compound 48, (S)-7-methyl-3-(trifluoromethyl)-6-(6-((1,1,1-trifluoropropan-2-yl)oxy)pyridin-3-yl)-[1,2,4]triazolo[4,3-b]pyridazine]", "inhibition at 1 µM": "> 75"}, {"smiles": "Fc1cc(-c2cn3c(C(F)F)nnc3cn2)cnc1OCC1CC1(F)F", "note": "(stereo not drawn) [Compound 31, 6-[6-[(2,2-difluorocyclopropyl)methoxy]-5-fluoro-3-pyridyl]-3-(difluoromethyl)-[1,2,4]triazolo[4,3-a]pyrazine]", "inhibition at 1 µM": "< 50"}, {"smiles": "FC(F)c1nnc2cnc(-c3ccc(OC4CC(F)(F)C4)nc3)cn12", "note": "[Compound 52, 6-(6-(3,3-difluorocyclobutoxy)pyridin-3-yl)-3-(difluoromethyl)-[1,2,4]triazolo [4,3-a]pyrazine]", "inhibition at 1 µM": "50 to 75"}, {"smiles": "CC(C)(Oc1ncc(-c2ccc3nnc(C(F)(F)F)n3n2)cc1F)C(F)(F)F", "note": "[Compound 34, 6-[5-fluoro-6-(2,2,2-trifluoro-1,1-dimethyl-ethoxy)-3-pyridyl]-3-(trifluoromethyl)-[1,2,4]triazolo[4,3-b]pyridazine]", "inhibition at 1 µM": "> 75"}, {"smiles": "CC(C)(Oc1ncc(-c2cn3c(C(F)(F)F)nnc3cn2)cc1F)C(F)(F)F", "note": "[Compound 3, 6-[5-fluoro-6-(2,2,2-trifluoro-1,1-dimethyl-ethoxy)-3-pyridyl]-3-(trifluoromethyl)-[1,2,4]triazolo[4,3-a]pyrazine]", "inhibition at 1 µM": "> 75"}, {"smiles": "Fc1cc(-c2ccc3nnc(C(F)(F)F)n3n2)cnc1OCC1CC1(F)F", "note": "(single isomer, unassigned) [23 (Isomer 1)]", "inhibition at 1 µM": "50 to 75"}]}, {"target": "T1, INaL v1.6 (late sodium current, HEK-293 cells expressing recombinant sodium channels)", "assay": "Inhibition of ATX-II evoked Nav late current (INaL), PatchXpress electrophysiology", "type": "cell-based", "settings": "compound at 1 μM, late current evoked by ATX-II 300 nM", "description": "as §1", "values": [{"smiles": "Fc1cc(-c2ccc3nnc(C(F)F)n3n2)cnc1OCC1CC1(F)F", "note": "(single isomer, unassigned) [21 (Isomer 2)]", "INaL v1.6 % Inhibition": "A (inhibition of less than 50%)"}, {"smiles": "CC(C)(Oc1ncc(-c2cn3c(C4CC4(F)F)nnc3cn2)cc1F)C(F)(F)F", "note": "(single isomer, unassigned) [13 (Isomer 2)]", "INaL v1.6 % Inhibition": "B (inhibition of 50% to 75%)"}]}]}
